Source: US4535090A, “3,5-Diphenyl-1H-1,2,4-triazoles pharmaceutical compositions and uses” (Gruppo Lepetit S.p.A., priority 1981, dated 1985)

The compounds below were run on pregnancy in female Sprague Dawley rats (assay: Pregnancy termination activity in rats after a single subcutaneous injection at day 7 of gestation). Conditions: rat, single s.c. injection, dissolved in sesame oil containing 20% benzyl benzoate (or suspended if insoluble), autopsy day 16.
Format: in vivo, rat (Sprague Dawley)
Description: In particular, female Sprague Dawley rats weighing 200-230 g were mated and the presence of sperm in the vagina was taken as evidence of mating. The day the sperm was detected, was considered day one of pregnancy. Pregnancy was later confirmed at the time of autopsy by the presence of implantation sites in the uterus.
Test compounds dissolved in sesame oil containing 20% benzyl benzoate (or suspended if insoluble), were administered subcutaneously, in a single injection, on day 7 of gestation. The animals were then autopsied on day 16 of pregnancy and the uteri were examined for evidence of pregnancy (implantation sites, fetal resorption or live fetuses), hemorrage, and evidence of abnormalities of the uterus, placenta or fetuses.

In order of rising “ED50 (dose terminating pregnancy, absence of live fetuses, in 50% of the treated animals)” value:
1. 1-acetyl-3(5)-(2-decanoyloxymethylphenyl)-5(3)-(3,4-dimethoxyphenyl)-1H-1,2,4-triazole [Example 10]  4 mg/kg
2. 1-hexanoyl-3(5)-(2-hexanoyloxymethylphenyl)-5(3)-(3-methoxyphenyl)-1H-1,2,4-triazole [Example 11]  8 mg/kg

Same assay, conditions: sc, rat, single s.c. injection, dissolved in sesame oil containing 20% benzyl benzoate (or suspended if insoluble), autopsy day 16, read-out: ED50 (dose terminating pregnancy, absence of live fetuses, in 50% of the treated animals)

In order of rising ED50:
1. CCCCCCCCCC(=O)OCc1ccccc1-c1nc(-c2cccc(OCC)c2)n[nH]1 [Example 7]  2 mg/kg
2. CCCCCCCCCCCC(=O)OCc1ccccc1-c1nc(-c2ccc(OC)c(OC)c2)n[nH]1 [Example 6, 5-(2-dodecanoyloxymethylphenyl)-3-(3,4-dimethoxyphenyl)-1H-1,2,4-triazole]  2 mg/kg
3. CCCCCCCCCC(=O)OCc1ccccc1-c1nc(-c2cccc(OC)c2)n[nH]1 [Example 4, 5-(2-decanoyloxymethylphenyl)-3-(3-methoxyphenyl)-1H-1,2,4-triazole]  2 mg/kg
4. CCCCCCCCCCCC(=O)OCc1ccccc1-c1nc(-c2cccc(OC)c2)n[nH]1 [Example 2, 5-(2-dodecanoyloxymethylphenyl)-3-(3-methoxyphenyl)-1H-1,2,4-triazole]  2 mg/kg
5. CCCCCCCC(=O)OCc1ccccc1-c1nc(-c2cccc(OCC)c2)n[nH]1 [Example 3, 3-(3-ethoxyphenyl)-5-(2-octanoyloxymethylphenyl)-1H-1,2,4-triazole]  4 mg/kg
6. CCCCCC(=O)OCc1ccccc1-c1nc(-c2cccc(OCC)c2)n[nH]1 [Example 9, 3-(3-ethoxyphenyl)-5-(2-hexanoyloxymethylphenyl)-1H-1,2,4-triazole]  7 mg/kg
7. CCCCCCCCCC(=O)OCc1ccccc1-c1nc(-c2ccc(OC)c(OC)c2)n[nH]1 [Example 8, 5-(2-decanoyloxymethylphenyl)-3-(3,4-dimethoxyphenyl)-1H-1,2,4-triazole]  10 mg/kg
8. CCCCCCCC(=O)OCc1ccccc1-c1nc(-c2cccc(OC)c2)n[nH]1 [Example 1, 3-(3-methoxyphenyl)-5-(2-octanoyloxymethylphenyl)-1H-1,2,4-triazole]  13 mg/kg
9. COc1cccc(-c2n[nH]c(-c3ccccc3COC(C)=O)n2)c1 [5-(2-Acetyloxymethylphenyl)-3-(3-methoxyphenyl)-1H--1,2,4-triazole, reference compound]  50 mg/kg

Same assay, conditions: sc, rat, single s.c. injection, given suspended instead of dissolved, autopsy day 16, read-out: ED50 (dose terminating pregnancy, absence of live fetuses, in 50% of the treated animals)

Work on `COc1cccc(-c2n[nH]c(-c3ccccc3CO)n2)c1` [5-(2-Hydroxymethylphenyl)-3-(3-methoxyphenyl)-1H--1,2,4-triazole, reference compound] yielded an ED50 of 40 mg/kg.
